Results as given in ChEMBL document CHEMBL4152347 (J Med Chem, 2018).

What was measured:
[1] = Protein binding in rat serum at 53 nM after 1 hr by ultracentrifugation assay; format: ADME, cell-free; settings: read-out: PB (converted)
[2] = Oral bioavailability in Sprague-Dawley rat at 5 mg/kg treated with 10 mg/kg elacridar immediately after compound dosing; format: ADME, organism-based; settings: in vivo, with elacridar 10 mg/kg
[3] = Oral bioavailability in beagle dog at 5 mg/kg administered via gavage as microsuspension pre-treated with 40 mg famotidine in capsule form 1 hr before compound dosing; format: ADME, organism-based, Canis lupus familiaris; settings: in vivo
[4] = tested on: Canis familiaris; experiment: AUC (0 to infinity) in beagle dog at 1 mg/kg, iv; format: ADME, organism-based, Canis lupus familiaris; design: dose 1 mg/kg, route intravenous, time infinity; settings: in vivo
[5] = AUC (0 to infinity) in Sprague-Dawley rat at 1 mg/kg, iv; format: ADME, organism-based; design: dose 1 mg/kg, time infinity, route intravenous; settings: in vivo
[6] = tested on: Salmonella typhimurium; experiment: Mutagenicity in Salmonella typhimurium TA100 in absence of Aroclor 1254-induced rat liver S9 fraction at up to 1600 ug/plate; format: toxicity, organism-based; settings: salmonella enterica subsp. enterica serovar typhimurium
[7] = Protein binding in mouse serum at 53 nM after 1 hr by ultracentrifugation assay; format: ADME, cell-free; settings: read-out: PB (converted)
[8] = AUC (0 to infinity) in beagle dog at 5 mg/kg, po administered via gavage as solution; format: ADME, organism-based, Canis lupus familiaris; design: dose 5 mg/kg, route oral, time infinity; settings: in vivo
[9] = Half life in dog hepatocytes at 0.5 uM after 1 hr in presence of NADPH by LC-MS/MS analysis; format: ADME, cell-based, Canis lupus familiaris, Hepatocyte
[10] = target: Gag-Pol polyprotein (Human immunodeficiency virus type 1 group M subtype B (isolate HXB2)(HIV-1), UniProt P04585, V370A)
[11] = in vivo; settings: Sprague-Dawley, rat, po, 5 mg/kg
[12] = target: Gag-Pol polyprotein (Human immunodeficiency virus type 1 group M subtype B (isolate HXB2)(HIV-1)) (UniProt P04585); settings: Human immunodeficiency virus 1
Description: Binding affinity to HIV1 gag polyprotein delta V370 mutant containing viral like particle assessed as dissociation half life

[13] = Volume of distribution at steady state in Sprague-Dawley rat at 1 mg/kg, iv; format: ADME, organism-based; settings: in vivo, read-out: Vdss
[14] = AUC (0 to infinity) in cynomolgus monkey at 5 mg/kg, po administered via gavage; format: ADME, organism-based, Macaca fascicularis; design: dose 5 mg/kg, route oral, time infinity; settings: in vivo
[15] = Bioavailability in Sprague-Dawley rat at 5 mg/kg, id; format: ADME, organism-based; settings: in vivo
[16] = tested on: Salmonella typhimurium; experiment: Mutagenicity in Salmonella typhimurium TA98 in absence of Aroclor 1254-induced rat liver S9 fraction at up to 1600 ug/plate; format: toxicity, organism-based; settings: salmonella enterica subsp. enterica serovar typhimurium
[17] = tested on: Canis familiaris; experiment: Oral bioavailability in beagle dog at 5 mg/kg administered via gavage as microsuspension along with high fat meal; format: ADME, organism-based, Canis lupus familiaris; settings: in vivo
[18] = Cmax in beagle dog at 5 mg/kg, po administered via gavage as microsuspension pre-treated with 6 ug/kg, im pentagastrin 15 to 30 mins before compound dosing; format: ADME, organism-based, Canis lupus familiaris; settings: in vivo
[19] = Oral bioavailability in CD1 mouse at 5 mg/kg; format: ADME, organism-based; settings: in vivo
[20] = Half life in dog liver microsomes at 0.5 uM after 1 hr in presence of NADPH by LC-MS/MS analysis; format: ADME, Canis lupus familiaris, microsome
[21] = Protein binding in dog serum at 53 nM after 1 hr by ultracentrifugation assay; format: ADME, cell-free, Canis lupus familiaris; settings: read-out: PB (converted)
[22] = Tmax in Sprague-Dawley rat at 5 mg/kg, po treated with 10 mg/kg elacridar immediately after compound dosing; format: ADME, organism-based; settings: in vivo, with elacridar 10 mg/kg
[23] = AUC (0 to infinity) in beagle dog at 5 mg/kg, po administered via gavage as microsuspension pre-treated with 6 ug/kg, im pentagastrin 15 to 30 mins before compound dosing; format: ADME, organism-based, Canis lupus familiaris; settings: in vivo
[24] = Oral bioavailability in beagle dog at 5 mg/kg administered as solution; format: ADME, organism-based, Canis lupus familiaris; settings: in vivo
[25] = in vivo; settings: Sprague-Dawley, rat, po, 5 mg/kg; remark: listed apart in the source
[26] = Half life in rat hepatocytes at 0.5 uM after 1 hr in presence of NADPH by LC-MS/MS analysis; format: ADME, cell-based, Hepatocyte
[27] = Stability of the compound in human plasma at 1 uM after 2 hrs by LC-MS/MS analysis; format: ADME, cell-free
[28] = Tmax in beagle dog at 5 mg/kg, po administered via gavage as solution; format: ADME, organism-based, Canis lupus familiaris; settings: in vivo
[29] = Cmax in MDR1 a/b knockout mouse at 5 mg/kg, po administered via gavage; format: ADME, organism-based; design: dose 5 mg/kg, route oral; settings: in vivo
[30] = Tmax in CD1 mouse at 5 mg/kg, po administered via gavage; format: ADME, organism-based; settings: in vivo
[31] = tested on: Canis familiaris; experiment: Tmax in beagle dog at 1 mg/kg, iv; format: ADME, organism-based, Canis lupus familiaris; settings: in vivo
[32] = AUC (0 to infinity) in Sprague-Dawley rat at 5 mg/kg, po treated with 10 mg/kg elacridar immediately after compound dosing; format: ADME, organism-based; design: dose 5 mg/kg, route oral, time infinity; settings: in vivo, with elacridar 10 mg/kg
[33] = Cmax in Sprague-Dawley rat at 5 mg/kg, id; format: ADME, organism-based; design: dose 5 mg/kg; settings: in vivo
[34] = AUC (0 to infinity) in MDR1 a/b knockout mouse at 5 mg/kg, po administered via gavage; format: ADME, organism-based; design: dose 5 mg/kg, time infinity, route oral; settings: in vivo

C=C(C)[C@@H]1CC[C@]2(NCCN3CCS(=O)(=O)CC3)CC[C@]3(C)[C@H](CC[C@@H]4[C@@]5(C)CC=C(c6ccc(C(=O)O)cc6)C(C)(C)[C@@H]5CC[C@]43C)[C@@H]12 [BMS-955176]
fraction unbound at 1 h, 0.053 µM [1]: 0.141 | bioavailability [2]: 63% | bioavailability [3]: 26% | AUC [4]: 31.7 µM·h | AUC(0-inf) [5]: 11.1 µM·h | Activity [6]: Non-Toxic | fraction unbound at 1 h, 0.053 µM [7]: 0.106 | AUC(0-inf) [8]: 29.4 µM·h | half-life at 0.5 µM [9]: > 2 h | Kd [10]: 6.5 nM | AUC(0-t) at 6 h [11]: 4.13 µM·h | T1/2 [12]: 0.767 h | Vd [13]: 1.1 L/kg | AUC(0-inf) [14]: 1 µM·h | bioavailability [15]: 36% | Activity [16]: Non-Toxic | F [17]: 67% | Cmax [18]: 4.43 µM | bioavailability [19]: 26.8% | half-life at 0.5 µM [20]: > 2 h | fraction unbound at 1 h, 0.053 µM [21]: 0.154 | Tmax [22]: 7.3 h | AUC(0-inf) [23]: 276 µM·h | bioavailability [24]: 9% | AUC(0-t) at 24 h [25]: 14.2 µM·h | half-life at 0.5 µM [26]: > 2 h | Stability [27]: Stable | Tmax [28]: 12.7 h | Cmax [29]: 4.02 µM | Tmax [30]: 3 h | Tmax [31]: 187 h | AUC(0-inf) [32]: 47.4 µM·h | Cmax [33]: 1.7 µM | AUC(0-inf) [34]: 65.5 µM·h
